Source: BindingDB's records for doi:10.1080/14756360802608351 (Ataturk University, 2009)

Target: Serum paraoxonase/arylesterase 1 (Homo sapiens, UniProt P27169)
Assay: Paraoxonase Activity Assay
Settings: pH 10.5; 25 °C
Excerpt: The enzyme assay was based on the estimation of p-nitrophenol at 412nm. The molar extinction coefficient of p-nitrophenol was used to calculate enzyme activity.

Chain of Serum paraoxonase/arylesterase 1 (P27169 whole entry): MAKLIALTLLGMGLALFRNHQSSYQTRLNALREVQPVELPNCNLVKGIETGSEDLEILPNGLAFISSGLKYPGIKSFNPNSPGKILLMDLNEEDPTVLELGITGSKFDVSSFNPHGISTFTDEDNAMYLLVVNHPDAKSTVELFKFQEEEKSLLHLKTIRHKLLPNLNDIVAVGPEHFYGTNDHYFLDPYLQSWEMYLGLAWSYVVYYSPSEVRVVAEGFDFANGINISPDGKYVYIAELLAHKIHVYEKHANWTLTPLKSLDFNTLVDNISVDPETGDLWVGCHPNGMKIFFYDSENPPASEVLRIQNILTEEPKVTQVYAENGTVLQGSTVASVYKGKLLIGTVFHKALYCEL

Row | Structure (SMILES) | IC50 [µM] | Ki [µM]
1 | CN1C(C(=O)Nc2ccccn2)=C(O)c2sccc2S1(=O)=O [Tenoxicam] | 340 | 306
2 | CCCC1CC(C(=O)NC(C(C)O)C2OC(SC)C(O)C(O)C2O)N(C)C1 (stereo not given) [Lincomycine] | 9640 | 11100
3 | CC(C(=O)O)c1cccc(C(=O)c2ccccc2)c1 (stereo not given) [2-(3-benzoylphenyl)propanoic acid] | 6230 | 13000

These reach a lower IC50. Values come first.

Row | IC50 [µM] | Ki [µM] | Structure (SMILES)
4 | 195 | 97 | COc1ccc2c(c1)c(CC(=O)O)c(C)n2C(=O)c1ccc(Cl)cc1 [indometacin]
5 | 136 | 9 | CN1C(C(=O)Nc2ccccn2)=C(O)c2sc(Cl)cc2S1(=O)=O [Lornoxicam]
